The record followed here is patent US9314497B2, “E2F as a target of hormone refractory prostate cancer” (RUTGERS, THE STATE UNIVERSITY OF NEW JERSEY, priority 2009, dated 2016).

Where two headings read alike, the source gives them in different places. Where no end group is shown, it is not given here.

A short description of data set [1]: Tolerability in tumor-bearing nude mice. The format is in vivo. The note with it: 60 mg/kg dose; all animals recovered quickly. The procedure: (§1) Nude mice bearing the H-69 small cell carcinoma xenografts were treated with PEP-2 encapsulated in PEGylated liposomes as previously described. Female mice (20-22 g) were inoculated […] with 10 million tumor cells suspended in 50 uL of PBS and an equal volume of matrigel. When the tumors were approximately 50 mm 3, the animals were randomized into groups of 6 and either treated with 0.06 ml of empty PEGylated liposomes, or 0.03 ml of PEGylated liposomes (30 mg/kg of PEP-2) or 0.06 ml of PEGylated liposomes (60 mg/kg of PEP-2), every 4 days. Tumor size (FIG. 10) and animal weight (FIG. 11) was measured every three days. […] Treatment of mice bearing advanced Tumors (FIG. 12) and mice with advanced tumors tolerate the encapsulated PEP-2 liposome treatment (FIG. 13).

The subject of data set [2] is H-69 small cell carcinoma xenografts. The data set can be described thus: H-69 xenograft tumor size in nude mice. The format is in vivo. As to conditions: 30 or 60 mg/kg of PEP-2 in PEGylated liposomes, every 4 days. The procedure:
as §1

Data set [3] has as its system tumor cell lines.
Procedure: (§2) The cells cultured in RPMI media and 10% fetal calf serum were treated with various concentrations of SEQ ID NO: 3 or SEQ ID NO: 19 at various concentrations for 24 hours and cell viability was determined using Vi-CELL automated cell counter.
In data set [4] the test system is normal human CD34 positive cells containing hematopoeitic progenitors (HSC). As to conditions: 24 h exposure.
Data set [5] concerns tumor cell lines. The data set can be described thus: Cell viability after 24 h treatment (Vi-CELL automated cell counter). The note with it: RPMI media and 10% fetal calf serum.
Procedure: as §2

In the case of “RQIKIWFQNRRIKWKKHHHRLSH (penetratin) [SEQ ID NO: 34]”, in data set [1], the acute adverse effect entry was “acute transient distress”. Further, in data set [2], the tumor size entry is “Decreases the Size of Tumors”.

Consider `CC[C@H](C)[C@H](NC(=O)[C@H](CCCCN)NC(=O)[C@@H](NC(=O)[C@H](CCC(N)=O)NC(=O)[C@@H](N)CCCNC(=N)N)[C@@H](C)CC)C(=O)N[C@@H](Cc1c[nH]c2ccccc12)C(=O)N[C@@H](Cc1ccccc1)C(=O)N[C@@H](CCC(N)=O)C(=O)N[C@@H](CC(N)=O)C(=O)N[C@@H](CCCNC(=N)N)C(=O)N[C@@H](CCCNC(=N)N)C(=O)N[C@@H](CCSC)C(=O)N[C@@H](CCCCN)C(=O)N[C@@H](Cc1c[nH]c2ccccc12)C(=O)N[C@@H](CCCCN)C(=O)N[C@@H](CCCCN)C(=O)N[C@@H](Cc1c[nH]cn1)C(=O)N[C@@H](Cc1c[nH]cn1)C(=O)N[C@@H](Cc1c[nH]cn1)C(=O)N[C@@H](CCCNC(=N)N)C(=O)N[C@@H](CC(C)C)C(=O)N[C@@H](CO)C(=O)N[C@@H](Cc1c[nH]cn1)C(=O)O` [SEQ ID NO: 3], for which, in the data set on tumor cell lines [3], the “growth inhibition / cytotoxicity in tumor cell lines” value (shortened to “growth inhibition / cytotoxicity”) is listed as “cytotoxic to most, but not all, tumor cell lines”. In data set [4], this compound returned an IC50 greater than 80 µM.

Consider HHHRLSH [SEQ ID NO: 1, HHHRLSH], for which the “growth inhibition / cytotoxicity” value in the data set with tumor cell lines [5] was “did not inhibit growth”.

Consider `CC[C@H](C)[C@H](NC(=O)[C@H](CCCCN)NC(=O)[C@@H](NC(=O)[C@H](CCC(N)=O)NC(=O)[C@@H](N)CCCNC(=N)N)[C@@H](C)CC)C(=O)N[C@@H](Cc1c[nH]c2ccccc12)C(=O)N[C@@H](Cc1ccccc1)C(=O)N[C@@H](CCC(N)=O)C(=O)N[C@@H](CC(N)=O)C(=O)N[C@@H](CCCNC(=N)N)C(=O)N[C@@H](CCCNC(=N)N)C(=O)N[C@@H](CCSC)C(=O)N[C@@H](CCCCN)C(=O)N[C@@H](Cc1c[nH]c2ccccc12)C(=O)N[C@@H](CCCCN)C(=O)N[C@@H](CCCCN)C(=O)N[C@@H](C)C(=O)N[C@@H](C)C(=O)N[C@@H](C)C(=O)N[C@H](C(=O)N[C@@H](CC(C)C)C(=O)N[C@@H](CO)C(=O)N[C@@H](C)C(=O)O)C(C)C` [SEQ ID NO: 19, reference compound], for which, in the data set on tumor cell lines [3], the “growth inhibition / cytotoxicity” value is given as “little or no effect on cell growth”.

As usually defined, the IC50 is the point on the concentration scale where inhibition reaches its midpoint. High values mean a need for much substance, low ones inhibition by little substance.
